Values quoted from earlier work, collected in patent US8652545B2, “Composition of a liquid dietary supplement to treat symptoms of autism spectrum disorders in children” (Reverta Health Solutions LLC, priority 2008, dated 2014).

Columns and labels:
[1] = in vivo
[2] = in vivo; remark: listed apart in the source
[3] = system: individuals diagnosed with autism; details: high doses, given with magnesium; Nye and Brice (2005)

Row | crossing of the blood-brain barrier [2] | SMILES | sleep [1] | stress [1] | benefit in individuals diagnosed with autism [3]
1 | easily crosses the blood-brain barrier | CCNC(=O)CC[C@H](N)C(=O)O [Theanine] | promote a more restful deep sleep | reduce stress | 
2 |  | Cc1ncc(CO)c(CO)c1O.Cl [vitamin B6, Vitamin B6] |  |  | extremely beneficial
